# Read-outs that look alike come from different tables or passages of the source.
# Columns and labels:
# Type in all cases: cell-based
# [1] = test system: Streptococcus pneumoniae 1016; assay: MIC, microtiter broth dilution (NCCLS M100-S14), S. pneumoniae 1016 (susceptible)
# In short: (§1)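 Minimum inhibitory concentration by broth microdilution in trays (NCCLS M100-S14); starting stocks 40 mg/ml, DMSO.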
# [2] = test system: Streptococcus pneumoniae 1095; details: microtiter broth dilution
# In short: as §1
# [3] = test system: Streptococcus pneumoniae 1175; details: microtiter broth dilution
# In short: as §1
# [4] = test system: Haemophilus influenzae 1218; assay: MIC, microtiter broth dilution (NCCLS M100-S14), H. influenzae 1218 (susceptible)
# In short: as §1
# [5] = test system: Streptococcus pyogenes 1079; assay: MIC, microtiter broth dilution (NCCLS M100-S14), S. pyogenes 1079 (ermB)
# In short: as §1
# [6] = S. pneumoniae 1016 (susceptible)
# [7] = H. influenzae 1218 (susceptible)
structure (smiles),measurement,setting,value
"CCC1OC(=O)C(C)C(=O)C(C)C(OC2OC(C)CC(N(C)C)C2O)C(C)(OC)CC(C)C(=O)C(C)C2N(C3CN(S(=O)(=O)c4ccc5oc(=O)[nH]c5c4)C3)C(=O)OC12C (stereo not shown) [Example 3.43, 3-descladinosyl-11,12-dideoxy-6-O-methyl-3-oxo-12,11-(oxycarbonyl-(1-(2,3-dihydro-2-oxobenzo[d]oxazole-5-sulfonyl)-azetidin-3-yl)-imino)-erythromycin A]",MIC S. pneumo. 1016,[1]; Streptococcus pneumoniae 1016,<0.06 mg/L
same,MIC S. pneumo. 1095,[2]; Streptococcus pneumoniae 1095,<0.06 mg/L
same,MIC S. pneumo. 1175,[3]; Streptococcus pneumoniae 1175,0.5 mg/L
same,MIC H. influenzae 1218,[4]; Haemophilus influenzae 1218,0.5 mg/L
same,MIC S. pyogenes 1079,[5]; Streptococcus pyogenes 1079,1 mg/L
CCC1OC(=O)C(C)C(=O)C(C)C(OC2OC(C)CC(N(C)C)C2O)C(C)(OC)CC(C)C(=O)C(C)C2N(CC3CCN(C(=O)c4cc5ccccn5n4)C3)C(=O)OC12C (stereo not shown) [13.16],MIC S. pneumo. 1016,[1]; [6],<0.06 mg/L
same,MIC S. pneumo. 1095,[2]; S. pneumoniae 1095 (ermB),>64.00 mg/L
same,MIC S. pneumo. 1175,[3]; S. pneumoniae 1175 (mefA),1 mg/L
same,MIC H. influenzae 1218,[4]; [7],16 mg/L
same,MIC S. pyogenes 1079,[5]; S. pyogenes 1079 (ermB),>64.00 mg/L
"CCOc1ccc(S(=O)(=O)N2CC(N3C(=O)OC4(C)C(CC)OC(=O)C(C)C(=O)C(C)C(OC5OC(C)CC(N(C)C)C5O)C(C)(OC)CC(C)C(=O)C(C)C34)C2)c2cccnc12 (stereo not shown) [Example 3.102, 3-descladinosyl-11,12-dideoxy-6-O-methyl-3-oxo-12,11-(oxycarbonyl-(1-(8-ethoxyquinoline-5-sulfonyl)-azetidin-3-yl)-imino)erythromycin A]",MIC S. pneumo. 1016,[1]; Streptococcus pneumoniae 1016,<0.063 mg/L
same,MIC S. pneumo. 1095,[2]; Streptococcus pneumoniae 1095,<0.063 mg/L
same,MIC S. pneumo. 1175,[3]; Streptococcus pneumoniae 1175,<0.063 mg/L
same,MIC H. influenzae 1218,[4]; Haemophilus influenzae 1218,1 mg/L
same,MIC S. pyogenes 1079,[5]; Streptococcus pyogenes 1079,<0.063 mg/L
"CC[C@H]1OC(=O)[C@H](C)[C@@H](OC(=O)N2CCCC2C)[C@H](C)[C@@H](O[C@@H]2O[C@H](C)C[C@H](N(C)C)[C@H]2O)[C@](C)(OC)C[C@@H](C)C(=O)[C@H](C)[C@H]2N(CC3CN(Cc4c[nH]c5ncccc45)C3)C(=O)O[C@]12C (stereo partly shown) [Example 5.03, 3-descladinosyl-11,12-dideoxy-6-O-methyl-12,11-(oxycarbonyl-(1-((1H-pyrrolo[2,3-b]pyridin-3-yl)-methyl)-(azetidin-3-yl)-methyl)-imino)-3-((2-methylpyrrolidine)-1-carbonyl)-erythromycin A]",MIC S. pneumo. 1016,[1]; Streptococcus pneumoniae 1016,<0.06 mg/L
same,MIC S. pneumo. 1095,[2]; Streptococcus pneumoniae 1095,<0.06 mg/L
same,MIC S. pneumo. 1175,[3]; Streptococcus pneumoniae 1175,<0.06 mg/L
same,MIC H. influenzae 1218,[4]; Haemophilus influenzae 1218,2 mg/L
same,MIC S. pyogenes 1079,[5]; Streptococcus pyogenes 1079,0.5 mg/L
"CCC1OC(=O)C(C)C(=O)C(C)C(OC2OC(C)CC(N(C)C)C2O)C(C)(OC)CC(C)C(=O)C(C)C2N(C3CN(C(=O)Nc4cccc5nccnc45)C3)C(=O)OC12C (stereo not shown) [Example 2.09, N-(quinoxalin-8-yl) aminocarbonyl]",MIC S. pneumo. 1016,[1]; Streptococcus pneumoniae 1016,<0.06 mg/L
same,MIC S. pneumo. 1095,[2]; Streptococcus pneumoniae 1095,16 mg/L
same,MIC S. pneumo. 1175,[3]; Streptococcus pneumoniae 1175,0.25 mg/L
same,MIC H. influenzae 1218,[4]; Haemophilus influenzae 1218,8 mg/L
same,MIC S. pyogenes 1079,[5]; Streptococcus pyogenes 1079,>64.00 mg/L
CCC1OC(=O)C(C)C(=O)C(C)C(OC2OC(C)CC(N(C)C)C2O)C(C)(OC)CC(C)C(=O)C(C)C2N(CC3CCN(Cc4c[nH]c(-c5ccccc5)n4)C3)C(=O)OC12C (stereo not shown) [13.08],MIC S. pneumo. 1016,[1]; [6],<0.06 mg/L
same,MIC S. pneumo. 1095,[2]; S. pneumoniae 1095 (ermB),4 mg/L
same,MIC S. pneumo. 1175,[3]; S. pneumoniae 1175 (mefA),0.5 mg/L
same,MIC H. influenzae 1218,[4]; [7],2 mg/L
same,MIC S. pyogenes 1079,[5]; S. pyogenes 1079 (ermB),64 mg/L
"CCC1OC(=O)C(C)C(=O)C(C)C(OC2OC(C)CC(N(C)C)C2O)C(C)(OC)CC(C)C(=O)C(C)C2N(C3CN(Cc4cccc5nccnc45)C3)C(=O)OC12C (stereo not shown) [Example 1.12, 3-descladinosyl-11,12-dideoxy-6-O-methyl-3-oxo-12,11-(oxycarbonyl-(1-((quinoxalin-8-yl)-methyl)-azetidin-3-yl)-imino)-erythromycin A]",MIC S. pneumo. 1016,[1]; Streptococcus pneumoniae 1016,<0.06 mg/L
same,MIC S. pneumo. 1095,[2]; Streptococcus pneumoniae 1095,<0.06 mg/L
same,MIC S. pneumo. 1175,[3]; Streptococcus pneumoniae 1175,<0.06 mg/L
same,MIC H. influenzae 1218,[4]; Haemophilus influenzae 1218,0.25 mg/L
same,MIC S. pyogenes 1079,[5]; Streptococcus pyogenes 1079,2 mg/L
CCC1OC(=O)C(C)C(=O)C(C)C(OC2OC(C)CC(N(C)C)C2O)C(C)(OC)CC(C)C(=O)C(C)C2N(CC3CN(C(=O)c4ccncc4)C3)C(=O)OC12C (stereo not shown) [4.05],MIC S. pneumo. 1016,[1]; Streptococcus pneumoniae 1016,0.02 mg/L
same,MIC S. pneumo. 1095,[2]; Streptococcus pneumoniae 1095,2 mg/L
same,MIC S. pneumo. 1175,[3]; Streptococcus pneumoniae 1175,1 mg/L
same,MIC H. influenzae 1218,[4]; Haemophilus influenzae 1218,4 mg/L
same,MIC S. pyogenes 1079,[5]; Streptococcus pyogenes 1079,>64.00 mg/L
"CCC1OC(=O)C(C)C(=O)C(C)C(OC2OC(C)CC(N(C)C)C2O)C(C)(OC)CC(C)C(=O)C(C)C2N(C3CN(Cc4ccc(OC)c5ncccc45)C3)C(=O)OC12C (stereo not shown) [Example 1.70, 3-descladinosyl-11,12-dideoxy-6-O-methyl-3-oxo-12,11-(oxycarbonyl-(1-(8-methoxyquinoline-5-methyl)-azetidin-3-yl)-imino)-erythromycin A]",MIC S. pneumo. 1016,[1]; Streptococcus pneumoniae 1016,<0.063 mg/L
same,MIC S. pneumo. 1095,[2]; Streptococcus pneumoniae 1095,<0.063 mg/L
same,MIC S. pneumo. 1175,[3]; Streptococcus pneumoniae 1175,<0.063 mg/L
same,MIC H. influenzae 1218,[4]; Haemophilus influenzae 1218,1 mg/L
same,MIC S. pyogenes 1079,[5]; Streptococcus pyogenes 1079,2 mg/L
CCC1OC(=O)C(C)C(=O)C(C)C(OC2OC(C)CC(N(C)C)C2O)C(C)(OC)CC(C)C(=O)C(C)C2N(CC3C4CN(C(=O)c5cc(F)ccc5F)CC43)C(=O)OC12C (stereo not shown) [16.03],MIC S. pneumo. 1016,[1]; [6],0.01 mg/L
same,MIC S. pneumo. 1095,[2]; S. pneumoniae 1095 (ermB),1.56 mg/L
same,MIC S. pneumo. 1175,[3]; S. pneumoniae 1175 (mefA),0.5 mg/L
same,MIC H. influenzae 1218,[4]; [7],0.5 mg/L
same,MIC S. pyogenes 1079,[5]; S. pyogenes 1079 (ermB),50 mg/L
CCC1OC(=O)C(C)C(=O)C(C)C(OC2OC(C)CC(N(C)C)C2O)C(C)(OC)CC(C)C(=O)C(C)C2N(CC3CCCN3C(=O)c3cccc4cccnc34)C(=O)OC12C.O=CO (stereo not shown) [10.11],MIC S. pneumo. 1016,[1]; [6],<0.06 mg/L
same,MIC S. pneumo. 1095,[2]; S. pneumoniae 1095 (ermB),0.5 mg/L
same,MIC S. pneumo. 1175,[3]; S. pneumoniae 1175 (mefA),4 mg/L
same,MIC H. influenzae 1218,[4]; [7],16 mg/L
same,MIC S. pyogenes 1079,[5]; S. pyogenes 1079 (ermB),>64.00 mg/L
CCC1OC(=O)C(C)C(=O)C(C)C(OC2OC(C)CC(N(C)C)C2O)C(C)(OC)CC(C)C(=O)C(C)C2N(C3CN(S(=O)(=O)c4cccc5nonc45)C3)C(=O)OC12C (stereo not shown) [Example 3.05],MIC S. pneumo. 1016,[1]; Streptococcus pneumoniae 1016,<0.06 mg/L
same,MIC S. pneumo. 1095,[2]; Streptococcus pneumoniae 1095,2 mg/L
same,MIC S. pneumo. 1175,[3]; Streptococcus pneumoniae 1175,<0.06 mg/L
same,MIC H. influenzae 1218,[4]; Haemophilus influenzae 1218,0.25 mg/L
same,MIC S. pyogenes 1079,[5]; Streptococcus pyogenes 1079,16 mg/L
CC[C@H]1OC(=O)[C@H](C)C(=O)[C@H](C)[C@@H](O[C@@H]2O[C@H](C)C[C@H](N(C)C)[C@H]2O)[C@](C)(OC)C[C@@H](C)C(=O)[C@H](C)[C@H]2N(CC3(O)CN(Cc4c[nH]c5ncccc45)C3)C(=O)O[C@]12C [7.04],MIC S. pneumo. 1016,[1]; [6],<0.06 mg/L
same,MIC S. pneumo. 1095,[2]; S. pneumoniae 1095 (ermB),<0.06 mg/L
same,MIC S. pneumo. 1175,[3]; S. pneumoniae 1175 (mefA),1 mg/L
same,MIC H. influenzae 1218,[4]; [7],0.5 mg/L
same,MIC S. pyogenes 1079,[5]; S. pyogenes 1079 (ermB),32 mg/L
"CCC1OC(=O)C(C)C(=O)C(C)C(OC2OC(C)CC(N(C)C)C2O)C(C)(OC)CC(C)C(=O)C(C)C2N(C3CN(S(=O)(=O)c4ccc(-c5ccon5)s4)C3)C(=O)OC12C (stereo not shown) [Example 3.33, 3-descladinosyl-11,12-dideoxy-6-O-methyl-3-oxo-12,11-(1-(oxycarbonyl-(5-(isoxazol-3-yl)thiophene-2-sulfonyl)-azetidin-3-yl)-imino)-erythromycin A]",MIC S. pneumo. 1016,[1]; Streptococcus pneumoniae 1016,<0.06 mg/L
same,MIC S. pneumo. 1095,[2]; Streptococcus pneumoniae 1095,<0.06 mg/L
same,MIC S. pneumo. 1175,[3]; Streptococcus pneumoniae 1175,<0.06 mg/L
same,MIC H. influenzae 1218,[4]; Haemophilus influenzae 1218,0.5 mg/L
same,MIC S. pyogenes 1079,[5]; Streptococcus pyogenes 1079,8 mg/L
"CCC1OC(=O)C(C)C(=O)C(C)C(OC2OC(C)CC(N(C)C)C2O)C(C)(OC)CC(C)C(=O)C(C)C2N(C3CN(S(=O)(=O)c4ccc(-n5nc(C)c(=O)[nH]c5=O)cc4)C3)C(=O)OC12C (stereo not shown) [Example 3.14, 4-(4,5-dihydro-6-methyl-3,5-dioxo-1,2,4-triazin-2(3H)-yl)benzenesulfonyl]",MIC S. pneumo. 1016,[1]; Streptococcus pneumoniae 1016,<0.06 mg/L
same,MIC S. pneumo. 1095,[2]; Streptococcus pneumoniae 1095,1 mg/L
same,MIC S. pneumo. 1175,[3]; Streptococcus pneumoniae 1175,1 mg/L
same,MIC H. influenzae 1218,[4]; Haemophilus influenzae 1218,1 mg/L
same,MIC S. pyogenes 1079,[5]; Streptococcus pyogenes 1079,>64.00 mg/L
CCC1OC(=O)C(C)C(=O)C(C)C(OC2OC(C)CC(N(C)C)C2O)C(C)(OC)CC(C)C(=O)C(C)C2N(CC3CCCN3S(=O)(=O)c3cccc4cccnc34)C(=O)OC12C (stereo not shown) [10.47],MIC S. pneumo. 1016,[1]; [6],<0.06 mg/L
same,MIC S. pneumo. 1095,[2]; S. pneumoniae 1095 (ermB),0.12 mg/L
same,MIC S. pneumo. 1175,[3]; S. pneumoniae 1175 (mefA),<0.06 mg/L
same,MIC H. influenzae 1218,[4]; [7],2 mg/L
same,MIC S. pyogenes 1079,[5]; S. pyogenes 1079 (ermB),64 mg/L
"CCC1OC(=O)C(C)C(=O)C(C)C(OC2OC(C)CC(N(C)C)C2O)C(C)(OC)CC(C)C(=O)C(C)C2N(C3CN(S(=O)(=O)c4c(C)n[nH]c4C)C3)C(=O)OC12C (stereo not shown) [Example 3.29, 3-descladinosyl-11,12-dideoxy-6-O-methyl-3-oxo-12,11-(oxycarbonyl-(1-(3,5-dimethyl-1H-pyrazole-4-sulfony)-azetidin-3-yl)-imino)-erythromycin A]",MIC S. pneumo. 1016,[1]; Streptococcus pneumoniae 1016,<0.06 mg/L
same,MIC S. pneumo. 1095,[2]; Streptococcus pneumoniae 1095,<0.06 mg/L
same,MIC S. pneumo. 1175,[3]; Streptococcus pneumoniae 1175,0.5 mg/L
same,MIC H. influenzae 1218,[4]; Haemophilus influenzae 1218,0.25 mg/L
same,MIC S. pyogenes 1079,[5]; Streptococcus pyogenes 1079,8 mg/L

# From US7462600B2, “Macrolides” (Pfizer Inc, priority 2004, dated 2008)
